Earlier results, collected in patent publication US20240342302A1, “DEGRADER-ANTIBODY CONJUGATES AND METHODS OF USING SAME” (Angiex, Inc., priority 2021, published 2024).

Experiments:
[1] = patients treated with CA4P

CC1(C)CCC(c2ccc(Cl)cc2)=C(CN2CCN(c3ccc(C(=O)NS(=O)(=O)c4ccc(N[C@H](CCN5CCOCC5)CSc5ccccc5)c(S(=O)(=O)C(F)(F)F)c4)cc3)CC2)C1 [ABT 263]
toxicity in the clinic: on-target and dose-limiting thrombocytopenia

COc1ccc(/C=C\c2cc(OC)c(OC)c(OC)c2)cc1OP(=O)(O)O [CA4P]
cardiovascular adverse events [1]: seven patients have experienced heart attacks

CN(C)CC#Cc1ccc(OCCCc2sc(N3CCc4cccc(C(=O)Nc5nc6ccccc6s5)c4C3)nc2C(=O)O)c(F)c1 [A115463]
toxicity in the clinic: on-target and dose-limiting thrombocytopenia
